Measured values from article doi:10.64898/2025.12.10.692519v1 (biorxiv, 2025).

Assays:
CHRF = assay: cells; set-up: species or system CMK; details: 72 h, read-out: AB8939 (IC50 nM)
U-118 = assay: cells; details: 144 h, read-out: AB8939
786-O = assay: cells; details: Homo sapiens, 786-0, 144 h, read-out: AB8939
REC-1 = assay: cells; details: Homo sapiens, Rec1, 144 h, read-out: AB8939
ACHN = assay: cells; details: Homo sapiens, ACHN, 144 h, read-out: AB8939
A4573 = assay: cells; details: A4573, 144 h, read-out: AB8939
CCRF-CEM = assay: cells; details: Homo sapiens, CCRF-CEM, 144 h, read-out: AB8939
HRT-18 = assay: cells; details: Homo sapiens, HRT-18, 144 h, read-out: AB8939
HGC-27 = assay: cells; details: Homo sapiens, HGC-27, 144 h, read-out: AB8939
Tov21G = assay: cells; details: Homo sapiens, TOV21G, 144 h, read-out: AB8939
THP-1 = assay: cells; details: Homo sapiens, THP-1, 144 h, read-out: AB8939
A-549 = assay: cells; details: Homo sapiens, A549, 144 h, read-out: AB8939
HL-60 = assay: cells; details: Homo sapiens, HL-60, 144 h, read-out: AB8939
MOLM-14 = assay: cells; details: Homo sapiens, MOLM-14, 144 h, read-out: AB8939
DU-145 = assay: cells; details: Homo sapiens, DU-145, 144 h, read-out: AB8939
U2OS = assay: cells; details: Homo sapiens, U2OS, 144 h, read-out: AB8939
NALM-6 = assay: cells; details: Homo sapiens, NALM-6, 144 h, read-out: AB8939
MDA-MB-468 = assay: cells; details: Homo sapiens, MDA-MB-468, 144 h, read-out: AB8939
HEP-2 = assay: cells; details: Homo sapiens, HEp-2, 144 h, read-out: AB8939
NOMO-1 = assay: cells; details: Homo sapiens, NOMO-1, 144 h, read-out: AB8939
SK-N-MC = assay: cells; details: Homo sapiens, SK-N-MC, 144 h, read-out: AB8939
PC-3 = assay: cells; details: Homo sapiens, PC-3, 144 h, read-out: AB8939
PANC-1 = assay: cells; details: Homo sapiens, PANC-1, 144 h, read-out: AB8939
LnCaP = assay: cells; details: Homo sapiens, LNCaP, 144 h, read-out: AB8939
Karpas-299 = assay: cells; details: Homo sapiens, KARPAS-299, 144 h, read-out: AB8939
PLC-PRF5 = assay: cells; details: Homo sapiens, PLC-PRF-5, 144 h, read-out: AB8939
HUT-78 = assay: cells; details: Homo sapiens, HuT78, 144 h, read-out: AB8939
MESSA = assay: cells; details: Homo sapiens, MES-SA, 144 h, read-out: AB8939
ALDH1A1 = ALDH1A1 (Homo sapiens, UniProt P00352); assay: NADH fluorescence dehydrogenase assay; type: biochemical
Sequence of ALDH1A1 (P00352 2-501): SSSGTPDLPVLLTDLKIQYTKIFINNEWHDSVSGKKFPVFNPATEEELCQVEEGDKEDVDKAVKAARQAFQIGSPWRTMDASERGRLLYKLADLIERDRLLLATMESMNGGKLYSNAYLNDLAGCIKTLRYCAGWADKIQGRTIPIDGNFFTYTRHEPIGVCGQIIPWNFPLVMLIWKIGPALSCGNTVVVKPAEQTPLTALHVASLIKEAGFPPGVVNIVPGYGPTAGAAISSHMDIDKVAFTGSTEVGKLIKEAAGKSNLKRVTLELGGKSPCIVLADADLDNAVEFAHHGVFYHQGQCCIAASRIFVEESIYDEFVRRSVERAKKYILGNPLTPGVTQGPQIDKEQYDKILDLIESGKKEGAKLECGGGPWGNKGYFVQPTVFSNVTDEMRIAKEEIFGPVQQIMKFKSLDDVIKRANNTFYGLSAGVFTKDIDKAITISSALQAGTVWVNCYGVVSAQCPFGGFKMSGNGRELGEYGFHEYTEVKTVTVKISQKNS

Question: With CCOCc1ccc(C)c(Nc2ncc(-c3ccc(N4CCNC4=O)cc3)o2)c1 [AB8939] as the compound, how does the IC50 (CHRF) read?
Answer: 9.7 nM

Question: What about the IC50 (U-118) of the same compound?
Answer: 1 nM

Question: What about the IC50 (786-O) of the same compound?
Answer: 87 nM

Question: What about the IC50 (REC-1) of the same compound?
Answer: 4 nM

Question: What about the IC50 (ACHN) of the same compound?
Answer: 4 nM

Question: What about the IC50 (A4573) of the same compound?
Answer: 3 nM

Question: And the IC50 (CCRF-CEM)?
Answer: 1 nM

Question: What about the IC50 (HRT-18) of the same compound?
Answer: 1 nM

Question: What about the IC50 (HGC-27) of the same compound?
Answer: 1 nM

Question: And the IC50 (Tov21G)?
Answer: 8 nM

Question: What about the IC50 (THP-1) of the same compound?
Answer: 49 nM

Question: What about the IC50 (A-549) of the same compound?
Answer: 1 nM

Question: What about the IC50 (HL-60) of the same compound?
Answer: 14 nM

Question: And the IC50 (MOLM-14)?
Answer: 14 nM

Question: What about the IC50 (DU-145) of the same compound?
Answer: 2 nM

Question: And the IC50 (U2OS)?
Answer: 1 nM

Question: And the IC50 (NALM-6)?
Answer: 1 nM

Question: What about the IC50 (MDA-MB-468) of the same compound?
Answer: 14 nM

Question: And the IC50 (HEP-2)?
Answer: 1 nM

Question: And the IC50 (NOMO-1)?
Answer: 46 nM

Question: And the IC50 (SK-N-MC)?
Answer: 1 nM

Question: What about the IC50 (PC-3) of the same compound?
Answer: 8 nM

Question: What about the IC50 (PANC-1) of the same compound?
Answer: 1 nM

Question: And the IC50 (LnCaP)?
Answer: 5 nM

Question: What about the IC50 (Karpas-299) of the same compound?
Answer: 1 nM

Question: What about the IC50 (PLC-PRF5) of the same compound?
Answer: 2 nM

Question: And the IC50 (HUT-78)?
Answer: 4 nM

Question: And the IC50 (MESSA)?
Answer: 7 nM

Question: What about the IC50 (ALDH1A1) of the same compound?
Answer: 610 nM
